Test results taken from US7247627B2, “Salts and polymorphs of a pyrrole-substituted indolinone compound” (Pharmacia & Upjohn Company, priority 2003, dated 2007).

Experiment: Chemical stability in temperature and humidity-controlled chamber (Example 2)
Format: physicochemical
Design: key to Appearance: U: unchanged
Procedure: Chemical stability was assessed for two different samples of 5-[(Z)-(5-fluoro-2-oxo-1,2-dihydro-3H-indol-3-ylidene)methyl]-N-[(2S)-2-hydroxy-3-morpholin-4-ylpropyl]-2,4-dimethyl-1H-pyrrole-3-carboxamide maleate salt, polymorph Form 1. Samples were maintained in a temperature and humidity-controlled chamber at 25° C. and 60% relative humidity (Tables 7 and 8) or at 40° C. and 75% relative humidity (Tables 9 and 10). At various time intervals, material was removed and tested for maleate counterion assay, impurities, water content and enantiomeric purity.
The maleate counterion assay was determined by ion exchange chromatography (IEC).
A suitable amount of the maleate salt is dissolved in water (Milli Q grade) and analyzed by IEC, and compared to calibration samples. Under these conditions, the peak due to maleic acid has a retention time of about 11 minutes. The amount of maleic acid in the sample is calculated as: % Assay=(Cs/W)×100 where Cs is the concentration of maleic acid found in the sample, and W is the theoretical sample concentration in the aqueous solution.
The amounts of impurities and degradation products were determined by HPLC, using a Perkin Elmer LC 200 system with a diode array detector. The analytical column was a Waters Xterra RP18, 5 μm, 250×4.6 mm, and the guard column was a Waters Xterra RP18, 5 μm, 20×3.9 mm. Mobile phase A was a mixture of 90% 0.05 M ammonium acetate buffer at pH 5.5 and 10% acetonitrile. Mobile phase B was a mixture of 10% 0.05 M ammonium acetate buffer at pH 5.5 and 90% acetonitrile.
Flow rate was 1 mL/min, injection volume 30 μL, room temperature, 435 nm detection. Under these conditions, the peak due to the maleate salt has a retention time of about 24 minutes. Impurities are characterized by their relative retention time (RRT). The impurity at RRT=0.26 is the E isomer. The other impurities were not characterized.
Enantiomeric purity was determined by HPLC, using a Chiralpak AD analytical column, 10 μm, 250×4.6 mm (Daicel Chemical Industries, Ltd.) using an oven temperature of 30° C., a mobile phase of 2-propanol/heptane/diethylamine (50/50/0.1), an isocratic elution mode, a flow rate of 0.5 mL/min, injection volume of 50 μL, detector wavelength of 265 nm, dilution solvent 2-propanol/heptane (50/50) and a sample concentration of 0.3 mg/mL. Under these conditions, the S isomer has a retention time of about 15.5 minutes, and the R isomer has a retention time of about 22 minutes.
Water content was determined according to USP 25, <921>, Method Ic.

[1] = 25° C. and 60% Relative Humidity, 1 mo.
[2] = 25° C. and 60% Relative Humidity, 3 mo.
[3] = 25° C. and 60% Relative Humidity, 6 mo.
[4] = 25° C. and 60% Relative Humidity, Initial
[5] = 40° C. and 75% Relative Humidity, 1 mo.
[6] = 40° C. and 75% Relative Humidity, 3 mo.
[7] = 40° C. and 75% Relative Humidity, 6 mo.
[8] = 40° C. and 75% Relative Humidity, Initial
[9] = 25° C. and 60% Relative Humidity, 9 mo.
[10] = 25° C. and 60% Relative Humidity, 12 mo.

Cc1[nH]c(/C=C2\C(=O)Nc3ccc(F)cc32)c(C)c1C(=O)NC[C@H](O)CN1CCOCC1 [Sample B, 5-[(Z)-(5-fluoro-2-oxo-1,2-dihydro-3H-indol-3-ylidene)methyl]-N-[(2S)-2-hydroxy-3-morpholin-4-ylpropyl]-2,4-dimethyl-1H-pyrrole-3-carboxamide]
Appearance [1]: U^a | Assay (% free base equivalent) [1]: 98.2 % free base equivalent | Impurities (%) RRT 0.26 [1]: 0.06% | Impurities (%) RRT 0.51 [1]: 0.62% | Impurities (%) RRT 0.71 [1]: 0.09% | Impurities (%) RRT 1.53 [1]: 0.09% | Impurities (%) RRT 1.74 [1]: 0.06% | Impurities (%) RRT 1.84 [1]: 0.08% | Total Impurities (%) [1]: 1.00% | Water Content (%) [1]: 0.50% | Appearance [2]: U^a | Assay (% free base equivalent) [2]: 98.2 % free base equivalent | Impurities (%) RRT 0.26 [2]: 0.18% | Impurities (%) RRT 0.51 [2]: 0.61% | Impurities (%) RRT 0.71 [2]: 0.09% | Impurities (%) RRT 1.53 [2]: 0.08% | Impurities (%) RRT 1.74 [2]: 0.05% | Impurities (%) RRT 1.84 [2]: 0.09% | Total Impurities (%) [2]: 1.10% | Water Content (%) [2]: 0.54% | Appearance [3]: U^a | Assay (% free base equivalent) [3]: 97.7 % free base equivalent | Impurities (%) RRT 0.26 [3]: 0.05% | Impurities (%) RRT 0.51 [3]: 0.56% | Impurities (%) RRT 0.71 [3]: 0.05% | Impurities (%) RRT 1.53 [3]: 0.08% | Impurities (%) RRT 1.74 [3]: 0.06% | Impurities (%) RRT 1.84 [3]: 0.09% | Total Impurities (%) [3]: 0.90% | Water Content (%) [3]: 0.47% | Assay (% free base equivalent) [4]: 97.8 % free base equivalent | Enantiomeric Purity (%) [4]: >99.90% | Impurities (%) RRT 0.26 [4]: 0.21% | Impurities (%) RRT 0.51 [4]: 0.68% | Impurities (%) RRT 0.71 [4]: 0.07% | Impurities (%) RRT 1.53 [4]: 0.11% | Impurities (%) RRT 1.74 [4]: 0.07% | Impurities (%) RRT 1.84 [4]: 0.10% | Total Impurities (%) [4]: 1.24% | Water Content (%) [4]: 0.45% | Appearance [5]: U^a | Assay (% free base equivalent) [5]: 98.2 % free base equivalent | Impurities (%) RRT 0.26 [5]: 0.13% | Impurities (%) RRT 0.51 [5]: 0.61% | Impurities (%) RRT 0.71 [5]: 0.08% | Impurities (%) RRT 1.53 [5]: 0.10% | Impurities (%) RRT 1.74 [5]: 0.06% | Impurities (%) RRT 1.84 [5]: 0.08% | Total Impurities (%) [5]: 1.06% | Water Content (%) [5]: 0.49% | Appearance [6]: U^a | Assay (% free base equivalent) [6]: 97.2 % free base equivalent | Impurities (%) RRT 0.26 [6]: 0.18% | Impurities (%) RRT 0.51 [6]: 0.58% | Impurities (%) RRT 0.71 [6]: 0.08% | Impurities (%) RRT 1.53 [6]: 0.09% | Impurities (%) RRT 1.74 [6]: 0.05% | Impurities (%) RRT 1.84 [6]: 0.09% | Total Impurities (%) [6]: 1.06% | Water Content (%) [6]: 0.49% | Appearance [7]: U^a | Assay (% free base equivalent) [7]: 97.5 % free base equivalent | Enantiomeric Purity (%) [7]: >99.9% | Impurities (%) RRT 0.26 [7]: 0.05% | Impurities (%) RRT 0.51 [7]: 0.54% | Impurities (%) RRT 1.53 [7]: 0.10% | Impurities (%) RRT 1.74 [7]: 0.05% | Impurities (%) RRT 1.84 [7]: 0.09% | Total Impurities (%) [7]: 0.83% | Water Content (%) [7]: 0.47% | Assay (% free base equivalent) [8]: 97.8 % free base equivalent | Enantiomeric Purity (%) [8]: >99.95% | Impurities (%) RRT 0.26 [8]: 0.21% | Impurities (%) RRT 0.51 [8]: 0.68% | Impurities (%) RRT 0.71 [8]: 0.07% | Impurities (%) RRT 1.53 [8]: 0.11% | Impurities (%) RRT 1.74 [8]: 0.07% | Impurities (%) RRT 1.84 [8]: 0.10% | Total Impurities (%) [8]: 1.24% | Water Content (%) [8]: 0.45%

Cc1[nH]c(/C=C2\C(=O)Nc3ccc(F)cc32)c(C)c1C(=O)NC[C@H](O)CN1CCOCC1 [Sample A, 5-[(Z)-(5-fluoro-2-oxo-1,2-dihydro-3H-indol-3-ylidene)methyl]-N-[(2S)-2-hydroxy-3-morpholin-4-ylpropyl]-2,4-dimethyl-1H-pyrrole-3-carboxamide]
Appearance [1]: U^a | Assay (% free base equivalent) [1]: 97.5 % free base equivalent | Enantiomeric Purity (%) [1]: >99.9% | Impurities (%) RRT 0.26 [1]: 0.28% | Impurities (%) RRT 0.51 [1]: 0.41% | Impurities (%) RRT 0.71 [1]: 0.06% | Impurities (%) RRT 1.53 [1]: 0.11% | Impurities (%) RRT 1.74 [1]: 0.10% | Impurities (%) RRT 1.84 [1]: 0.13% | Total Impurities (%) [1]: 1.09% | Water Content (%) [1]: 0.53% | Appearance [2]: U^a | Assay (% free base equivalent) [2]: 98.4 % free base equivalent | Enantiomeric Purity (%) [2]: >99.9% | Impurities (%) RRT 0.26 [2]: 0.05% | Impurities (%) RRT 0.51 [2]: 0.40% | Impurities (%) RRT 1.53 [2]: 0.12% | Impurities (%) RRT 1.74 [2]: 0.09% | Impurities (%) RRT 1.84 [2]: 0.12% | Total Impurities (%) [2]: 0.78% | Water Content (%) [2]: 0.68% | Appearance [3]: U^a | Assay (% free base equivalent) [3]: 98.4 % free base equivalent | Enantiomeric Purity (%) [3]: >99.9% | Impurities (%) RRT 0.26 [3]: 0.07% | Impurities (%) RRT 0.51 [3]: 0.42% | Impurities (%) RRT 1.53 [3]: 0.12% | Impurities (%) RRT 1.74 [3]: 0.09% | Impurities (%) RRT 1.84 [3]: 0.12% | Total Impurities (%) [3]: 0.82% | Water Content (%) [3]: 0.46% | Appearance [9]: U^a | Assay (% free base equivalent) [9]: 98.4 % free base equivalent | Enantiomeric Purity (%) [9]: >99.9% | Impurities (%) RRT 0.26 [9]: 0.15% | Impurities (%) RRT 0.51 [9]: 0.36% | Impurities (%) RRT 1.53 [9]: 0.12% | Impurities (%) RRT 1.74 [9]: 0.07% | Impurities (%) RRT 1.84 [9]: 0.10% | Total Impurities (%) [9]: 0.77% | Water Content (%) [9]: 0.42% | Appearance [10]: U^a | Assay (% free base equivalent) [10]: 98.2 % free base equivalent | Enantiomeric Purity (%) [10]: >99.9% | Impurities (%) RRT 0.26 [10]: 0.06% | Impurities (%) RRT 0.51 [10]: 0.33% | Impurities (%) RRT 1.53 [10]: 0.13% | Impurities (%) RRT 1.74 [10]: 0.07% | Impurities (%) RRT 1.84 [10]: 0.11% | Total Impurities (%) [10]: 0.70% | Water Content (%) [10]: 0.74% | Assay (% free base equivalent) [4]: 98.7 % free base equivalent | Enantiomeric Purity (%) [4]: >99.9% | Impurities (%) RRT 0.26 [4]: 0.09% | Impurities (%) RRT 0.51 [4]: 0.40% | Impurities (%) RRT 0.71 [4]: 0.05% | Impurities (%) RRT 1.53 [4]: 0.10% | Impurities (%) RRT 1.74 [4]: 0.09% | Impurities (%) RRT 1.84 [4]: 0.10% | Total Impurities (%) [4]: 0.83% | Water Content (%) [4]: 0.55% | Appearance [5]: U^a | Assay (% free base equivalent) [5]: 97.9 % free base equivalent | Enantiomeric Purity (%) [5]: 100.00% | Impurities (%) RRT 0.26 [5]: 0.29% | Impurities (%) RRT 0.51 [5]: 0.39% | Impurities (%) RRT 1.53 [5]: 0.11% | Impurities (%) RRT 1.74 [5]: 0.08% | Impurities (%) RRT 1.84 [5]: 0.13% | Total Impurities (%) [5]: 1.00% | Water Content (%) [5]: 0.57% | Appearance [6]: U^a | Assay (% free base equivalent) [6]: 98.5 % free base equivalent | Enantiomeric Purity (%) [6]: 100.00% | Impurities (%) RRT 0.26 [6]: 0.05% | Impurities (%) RRT 0.51 [6]: 0.40% | Impurities (%) RRT 1.53 [6]: 0.14% | Impurities (%) RRT 1.74 [6]: 0.08% | Impurities (%) RRT 1.84 [6]: 0.12% | Total Impurities (%) [6]: 0.80% | Water Content (%) [6]: 0.69% | Appearance [7]: U^a | Assay (% free base equivalent) [7]: 98.0 % free base equivalent | Enantiomeric Purity (%) [7]: 100.00% | Impurities (%) RRT 0.26 [7]: 0.07% | Impurities (%) RRT 0.51 [7]: 0.40% | Impurities (%) RRT 1.53 [7]: 0.15% | Impurities (%) RRT 1.74 [7]: 0.07% | Impurities (%) RRT 1.84 [7]: 0.12% | Total Impurities (%) [7]: 0.81% | Water Content (%) [7]: 0.42% | Assay (% free base equivalent) [8]: 98.7 % free base equivalent | Enantiomeric Purity (%) [8]: 100.00% | Impurities (%) RRT 0.26 [8]: 0.09% | Impurities (%) RRT 0.51 [8]: 0.40% | Impurities (%) RRT 0.71 [8]: 0.05% | Impurities (%) RRT 1.53 [8]: 0.10% | Impurities (%) RRT 1.74 [8]: 0.09% | Impurities (%) RRT 1.84 [8]: 0.10% | Total Impurities (%) [8]: 0.83% | Water Content (%) [8]: 0.55%
